Among the data in ChEMBL document CHEMBL1145934, “Novel sst(4)-selective somatostatin (SRIF) agonists. 2. Analogues with beta-methyl-3-(2-naphthyl)alanine substitutions at position 8” (J Med Chem, 2003) are IC50 values, retold here.

Test [1] deals with Somatostatin receptor type 3 (Homo sapiens, UniProt P32745). Kind of test: Binding affinity at human Somatostatin receptor type 3 by [125I][Leu8,D-Trp22,Tyr25]SRIF-28 displacement.
The target of test [2] is Somatostatin receptor type 2 (Homo sapiens, UniProt P30874). In words: Binding affinity at human Somatostatin receptor type 2 by [125I][Leu8,D-Trp22,Tyr25]SRIF-28 displacement.
Somatostatin receptor type 2, sequence (P30874 whole entry): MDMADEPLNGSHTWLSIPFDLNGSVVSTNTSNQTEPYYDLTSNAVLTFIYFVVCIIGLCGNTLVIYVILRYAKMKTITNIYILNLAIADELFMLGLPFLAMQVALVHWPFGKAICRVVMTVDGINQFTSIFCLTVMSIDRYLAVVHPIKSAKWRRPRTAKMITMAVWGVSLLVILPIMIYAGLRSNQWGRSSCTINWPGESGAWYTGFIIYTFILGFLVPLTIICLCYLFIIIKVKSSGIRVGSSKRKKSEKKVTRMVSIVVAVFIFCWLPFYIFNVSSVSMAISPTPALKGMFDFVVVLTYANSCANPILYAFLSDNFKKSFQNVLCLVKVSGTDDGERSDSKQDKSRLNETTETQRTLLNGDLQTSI
Test [3] has as its target Somatostatin receptor type 1 (Homo sapiens, UniProt P30872). In words: Binding affinity at human Somatostatin receptor type 1 by [125I][Leu8,D-Trp22,Tyr25]SRIF-28 displacement.
The target in test [4] is Somatostatin receptor type 5 (Homo sapiens, UniProt P35346). In words: Binding affinity at human Somatostatin receptor type 5 by [125I][Leu8,D-Trp22,Tyr25]SRIF-28 displacement.
Somatostatin receptor type 5, sequence (P35346 whole entry): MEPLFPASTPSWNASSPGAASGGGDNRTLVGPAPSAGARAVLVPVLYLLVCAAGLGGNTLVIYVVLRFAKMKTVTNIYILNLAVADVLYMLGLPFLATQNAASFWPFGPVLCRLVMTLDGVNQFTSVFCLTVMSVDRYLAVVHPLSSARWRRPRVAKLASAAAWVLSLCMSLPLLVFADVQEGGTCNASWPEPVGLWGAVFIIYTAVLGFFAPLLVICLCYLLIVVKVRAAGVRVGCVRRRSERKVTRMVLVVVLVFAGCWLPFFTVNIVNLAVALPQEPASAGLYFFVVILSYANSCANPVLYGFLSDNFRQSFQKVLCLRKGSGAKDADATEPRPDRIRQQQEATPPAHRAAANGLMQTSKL
Test [5] deals with Somatostatin receptor type 4 (Homo sapiens, UniProt P31391). Kind of test: Binding affinity at human Somatostatin receptor type 4 by [125I][Leu8,D-Trp22,Tyr25]SRIF-28 displacement.
Somatostatin receptor type 4, sequence (P31391 whole entry): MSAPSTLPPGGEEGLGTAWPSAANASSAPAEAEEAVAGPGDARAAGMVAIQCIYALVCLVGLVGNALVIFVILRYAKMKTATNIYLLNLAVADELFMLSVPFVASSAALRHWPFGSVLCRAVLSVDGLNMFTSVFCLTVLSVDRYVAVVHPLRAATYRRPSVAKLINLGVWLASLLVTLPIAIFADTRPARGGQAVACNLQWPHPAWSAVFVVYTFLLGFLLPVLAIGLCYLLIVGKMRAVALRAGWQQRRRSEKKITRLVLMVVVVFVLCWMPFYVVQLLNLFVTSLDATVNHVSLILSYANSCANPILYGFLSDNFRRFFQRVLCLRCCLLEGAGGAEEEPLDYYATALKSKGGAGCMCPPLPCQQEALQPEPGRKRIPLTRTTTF

Somatostatin receptor type 3, sequence (P32745 whole entry): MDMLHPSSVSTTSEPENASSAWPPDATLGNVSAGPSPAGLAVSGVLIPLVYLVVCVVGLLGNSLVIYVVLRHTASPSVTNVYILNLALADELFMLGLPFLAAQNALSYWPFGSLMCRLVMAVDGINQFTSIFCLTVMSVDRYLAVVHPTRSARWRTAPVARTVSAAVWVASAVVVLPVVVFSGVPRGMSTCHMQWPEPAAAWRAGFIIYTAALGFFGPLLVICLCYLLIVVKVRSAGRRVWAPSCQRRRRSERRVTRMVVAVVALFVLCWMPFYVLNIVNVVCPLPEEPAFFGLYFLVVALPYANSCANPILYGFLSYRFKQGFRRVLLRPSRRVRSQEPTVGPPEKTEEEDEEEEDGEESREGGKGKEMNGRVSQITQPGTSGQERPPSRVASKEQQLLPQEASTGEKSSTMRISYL
Somatostatin receptor type 1, sequence (P30872 whole entry): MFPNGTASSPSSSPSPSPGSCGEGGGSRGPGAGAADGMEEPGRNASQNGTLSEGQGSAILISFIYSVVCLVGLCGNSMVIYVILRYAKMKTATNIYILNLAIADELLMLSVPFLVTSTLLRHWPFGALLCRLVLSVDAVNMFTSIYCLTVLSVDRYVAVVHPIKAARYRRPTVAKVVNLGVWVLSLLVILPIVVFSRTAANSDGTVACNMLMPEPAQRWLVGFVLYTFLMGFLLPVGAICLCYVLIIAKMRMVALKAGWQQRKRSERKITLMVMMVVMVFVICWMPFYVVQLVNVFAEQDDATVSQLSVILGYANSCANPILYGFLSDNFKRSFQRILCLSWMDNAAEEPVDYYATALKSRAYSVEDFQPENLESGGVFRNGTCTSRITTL

For orientation: IC50 means the concentration that gives 50% inhibition. As to `COC(=O)[C@H](CCCN=C(N)N)NC(=O)CCCc1c(-c2ccccc2)[nH]c2c(F)cc(F)cc12`, the IC50 in test [1] and in test [2] was greater than 10000 nM in each case.
In the case of `C[C@@H](O)[C@@H]1NC(=O)[C@H](CCCCN)NC(=O)[C@H]([C@@H](C)c2ccc3ccccc3c2)NC(=O)[C@H](Cc2ccc(O)cc2)NC(=O)[C@H](Cc2ccccc2)NC(=O)[C@@H](N)CSSC[C@@H](C(=O)O)NC(=O)[C@H](Cc2ccccc2)NC1=O`, the IC50 was greater than 1000 nM in test [3]; 600 nM in test [1]; 110 nM in test [2]; 147 nM in test [4]; 2.1 nM in test [5].
As to `C[C@H](c1ccc2ccccc2c1)[C@@H]1NC(=O)[C@H](Cc2ccc(O)cc2)NC(=O)[C@H](Cc2ccccc2)NC(=O)[C@@H](N)CSSC[C@@H](C(=O)O)NC(=O)[C@H](Cc2ccccc2)NC(=O)[C@H]([C@@H](C)O)NC(=O)[C@H](CCCCN)NC1=O`, the IC50 amounted to 410 nM in test [3]; 18 nM in test [1]; 30 nM in test [2]; 17.5 nM in test [4]; 2.2 nM in test [5].
For `C[C@H](c1ccc2ccccc2c1)[C@@H]1NC(=O)[C@H](Cc2ccc(N)cc2)NC(=O)[C@H](Cc2ccccc2)NC(=O)[C@H](NC(=O)[C@@H](N)Cc2ccc(O)cc2)CSSC[C@@H](C(=O)O)NC(=O)[C@H](Cc2ccccc2)NC(=O)[C@H]([C@@H](C)O)NC(=O)[C@H](CCCCN)NC1=O`, in that order: greater than 1000 nM, 595 nM, 474 nM, greater than 1000 nM and 61 nM.
For the compound `C[C@@H](O)[C@H]1NC(=O)[C@H](CCCCN)NC(=O)[C@@H]([C@@H](C)c2ccc3ccccc3c2)NC(=O)[C@H](Cc2ccc(N)cc2)NC(=O)[C@@H](Cc2ccccc2)NC(=O)[C@H](N)CSSC[C@@H](C(=O)O)NC(=O)[C@H](Cc2ccccc2)NC1=O`, the IC50 was greater than 10000 nM in test [3]; greater than 1000 nM in test [1]; 575 nM in test [2]; greater than 10000 nM in test [4]; 6.9 nM in test [5].
Take `C[C@H](c1ccc2ccccc2c1)[C@@H]1NC(=O)[C@H](Cc2ccc(N)cc2)NC(=O)[C@@H](Cc2ccccc2)NC(=O)[C@H](N)CSSC[C@@H](C(=O)O)NC(=O)[C@H](Cc2ccccc2)NC(=O)[C@@H]([C@@H](C)O)NC(=O)[C@H](CCCCN)NC1=O`: the IC50 in test [3] is greater than 1000 nM; in test [1], 186 nM; in test [2] it was 102 nM; in test [4], 101 nM; in test [5] it was 8.7 nM.
In the same order, the values of `C[C@H](c1ccc2ccccc2c1)[C@H]1NC(=O)[C@H](Cc2ccc(O)cc2)NC(=O)[C@@H](Cc2ccccc2)NC(=O)[C@H](N)CSSC[C@@H](C(=O)O)NC(=O)[C@H](Cc2ccccc2)NC(=O)[C@@H]([C@@H](C)O)NC(=O)[C@H](CCCCN)NC1=O` are greater than 10000 nM, greater than 1000 nM, greater than 10000 nM, greater than 10000 nM and greater than 1000 nM.
For the compound `C[C@@H](O)[C@H]1NC(=O)[C@H](CCCCN)NC(=O)[C@@H]([C@@H](C)c2ccc3ccccc3c2)NC(=O)[C@H](Cc2ccccc2)NC(=O)[C@@H](Cc2ccccc2)NC(=O)[C@H](N)CSSC[C@@H](C(=O)O)NC(=O)[C@H](Cc2ccc(O)cc2)NC1=O`, the IC50 in test [3] was greater than 1000 nM; in test [1], 325 nM; in test [2], 357 nM; in test [4], 700 nM; in test [5], 11.8 nM.
In the same order, the values of `C[C@@H](O)[C@@H]1NC(=O)[C@H](CCCCN)NC(=O)[C@@H]([C@@H](C)c2ccc3ccccc3c2)NC(=O)[C@H](Cc2ccc(O)cc2)NC(=O)[C@H](Cc2ccccc2)NC(=O)[C@@H](N)CSSC[C@@H](C(=O)O)NC(=O)[C@H](Cc2ccccc2)NC1=O` are greater than 1000 nM, greater than 10000 nM, greater than 1000 nM, greater than 1000 nM and 105 nM.
In the same order, the values of `C[C@@H](O)[C@@H]1NC(=O)[C@H](CCCCN)NC(=O)[C@@H]([C@@H](C)c2ccc3ccccc3c2)NC(=O)[C@H](Cc2ccc(N)cc2)NC(=O)[C@H](Cc2ccccc2)NC(=O)[C@H](NC(=O)[C@@H](N)Cc2ccc(O)cc2)CSSC[C@@H](C(=O)O)NC(=O)[C@H](Cc2ccccc2)NC1=O` are greater than 1000 nM, 171 nM, 204 nM, 127 nM and 9.8 nM.
As for `C[C@@H](O)[C@@H]1NC(=O)[C@H](CCCCN)NC(=O)[C@@H]([C@@H](C)c2ccc3ccccc3c2)NC(=O)[C@H](Cc2ccc(O)cc2)NC(=O)[C@H](Cc2ccccc2)NC(=O)[C@H](N)CSSC[C@@H](C(=O)O)NC(=O)[C@H](Cc2ccccc2)NC1=O`, the IC50 in test [5] was found to be 0.53 nM.
Take `C[C@H](c1ccc2ccccc2c1)[C@@H]1NC(=O)[C@H](Cc2ccccc2)NC(=O)[C@@H](Cc2ccccc2)NC(=O)[C@H](N)CSSC[C@@H](C(=O)O)NC(=O)[C@H](Cc2ccc(O)cc2)NC(=O)[C@@H]([C@@H](C)O)NC(=O)[C@H](CCCCN)NC1=O`: the IC50 is greater than 1000 nM in test [3]; 12 nM in test [1]; 16 nM in test [2]; 47 nM in test [4]; 9.2 nM in test [5].
